Measurements: US20240415825A1, “COMPOUNDS FOR THE TREATMENT OF MALARIA” (FUNDACIÓ INSTITUT DE BIOENGINYERIA DE CATALUNYA, priority 2021, published 2024)
“Also recorded” adds a separate entry of the source.

Experiments:
P. falciparum K1 strain = test: P. falciparum growth inhibition (K1 strain); assay type: cell-based; conditions: Plasmodium falciparum, read-out: IC50 in K1 strain (μM) ± SEM
[1] = test system: Plasmodium berghei CTRP-GFP; test: Gametocyte to ookinete transition inhibition; assay type: cell-based; conditions: up to a concentration of 2 μM
Protocol: Eight days before ookinete production, 200 μL of Plasmodium berghei CTRP-GFP (which expresses GFP when reaching ookinete stage) (Vlachou, D. et al., 2004) in cryopreservation solution (RBC pellet:RPMI:30% glycerol in water, 1:1:2) was administered i.p. to a BALB/c mouse. Four days later this mouse was the donor to infect i.p. with 5×10^7 parasitized red blood cells in 200 μL of PBS three mice that one hour before the infection had been pretreated i.p. with phenylhydrazine (120 μL of a 10 mg/mL solution in PBS).
For ookinete production, up to 1 mL of blood carrying gametocytes was collected from each animal by intracardiac puncture and diluted in 30 mL of ookinete medium: 10.4 g/L of RPMI supplemented with […], 0.05% w/v hypoxanthine, 0.02% w/v xanthurenic acid, 50 U/mL penicillin and 50 μg/mL streptomycin (Invitrogen), 20% heat-inactivated fetal bovine serum (FBS, Invitrogen), 25 mM HEPES, pH 7.4.
24 h later, samples were diluted 1:100 in PBS and analyzed in a LSRFortessa™ flow cytometer (BD Biosciences) set up with the 5 lasers, 20 parameters standard configuration. The GFP positive cell population was selected and counted using 488 nm laser excitation and a 525/40 nm emission collection filter. BD FACSDiva software (BD biosciences) was used in data collection, and Flowing Software 2.5.1 (Turku Centre for Biotechnology) was used for analysis.

[2] = In vivo toxicity assay in mice; design: species or system BALB/c mice; conditions: male mice
Protocol: BALB/c female and male mice (Janvier Laboratories) were maintained with unlimited access to food and water under standard environmental conditions (20-24° C. and 12/12 h light/dark cycle). […] First, the lowest dose was intravenously injected to one female and one male mice. An oxygen stream of 4% isoflurane was used to anesthetize the mice, which were then maintained during the whole procedure (less than 3 minutes) with 2.5% isoflurane.
After the administration, mice were observed and different parameters related to their behavior (lethargy, motility alterations, seizures, coma, automutilation, aggressiveness, vocalizations, stereotyped movements) and physical conditions (pain, respiratory disturbances, tachycardia or bradycardia, dehydration, hair loss, body weight loss, dermatitis, bad hygiene, pruritus, tearing) were followed. If after 48 h no deleterious effects were observed, the following dose was administered to two other male and female mice.

[3] = test system: P. falciparum NF54-gexp02-Tom strain gametocytes; test: microbe, parasite or virus in culture; assay type: cell-based; conditions: Plasmodium falciparum, NF54, 48 h, read-out: IC50 on early gametocytes
Protocol: Cultures of the P. falciparum NF54-gexp02-Tom strain (developed and authenticated by Portugaliza, H. P. et al., 2019 and kindly provided by Prof. Alfred Cortes), were maintained in standard conditions in RPMI medium supplemented with 0.5% Albumax II and 2 mM choline, synchronized in ring stages with sorbitol lysis, and diluted to 2% parasitemia. To trigger sexual conversion, choline was removed from the medium and cultures were maintained in the same conditions for 48 h after synchronization (cycle 0). In the next cycle (cycle 1), parasites were treated with 50 mM N-acetylglucosamine (GlcNac) in order to kill asexual parasites, and maintained in RPMI supplemented with 10% human serum. Medium was refreshed daily and GlcNac was kept during 4 days.
Controls of untreated parasites as well as of parasites treated with a lethal dose of chloroquine were prepared. Gametocytemia was monitored daily by light microscopy until the majority of parasites (˜90%) could be identified as stage V gametocytes. At that point, Giemsa smears of each well were prepared and mature gametocytes were manually counted (10,000 cells were counted for each replica by two investigators blinded to group assignment). […] Afterwards, the culture was treated for 48 h with the drugs and the gametocytemia determined as above.

SMILES: COc1cc2c(cc1OC)C(=O)C(CC1CCN(CNc3c4c(nc5cc(Cl)ccc35)CCCC4)CC1)C2 (stereo not shown) [DONE3TCI]
- IC50 (P. falciparum K1 strain): 0.36 ± 0.07 µM
- effect on ookinete development [1]: did not have an observable effect; also recorded: does not show any observable effect
- dose at which toxicity starts being observed [2]: 3 mg/kg
- IC50 [3]: 285 ± 56 nM
